Results on 35 compounds are retold here after patent US20130261077A1 (priority 2012, published 2013).

Each structure is given as a SMILES string.

T1 sequence (P08191 22-177): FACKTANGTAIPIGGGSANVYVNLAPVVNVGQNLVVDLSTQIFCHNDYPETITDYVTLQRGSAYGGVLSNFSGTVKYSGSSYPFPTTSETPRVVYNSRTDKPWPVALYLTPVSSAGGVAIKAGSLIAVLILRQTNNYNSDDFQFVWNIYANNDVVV

The assay addresses T1, FimH-CRD (Escherichia coli, UniProt P08191).
T1 construct: The first 177 amino acids of the FimH protein; thrombin tag (printed as 'fusion protein with thrombin') (cleaved yes); made in house; host or cells: bacteria (pET21b plasmid)
The experiment in a line: Competitive binding assay by fluorescence polarization, assay 2 (compounds prepared by robotics, plates frozen and thawed). In outline: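 Compounds at 0.4 nM–75 μM final (12 points, 3-fold steps, duplicate) compete with a 5 nM Alexa 647 mannoside probe for 60 nM FimH-CRD; 5 h room-temperature incubation in pH 7.0 Tris buffer with 2.5% DMSO, FP read-out, Kd from fitted curves. Assay 1 uses manual dilution, assay 2 robot-made frozen/thawed plates.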
`OC[C@H]1O[C@H](c2cccc(-c3ccc4[nH]c(C(F)(F)F)nc4c3)c2)[C@@H](O)[C@@H](O)[C@@H]1O` [Compound 148, (2R,3S,4R,5S,6R)-2-(Hydroxymethyl)-6-[3-[2-(trifluoromethyl)-1H-benzimidazol-5-yl]phenyl]tetrahydropyran-3,4,5-triol]: the Kd is 25.1 ± 12 nM. `CCCCn1cnc2ccc(-c3cccc([C@H]4O[C@H](CO)[C@@H](O)[C@H](O)[C@@H]4O)c3)cc21` [Compound 149, (2R,3S,4R,5S,6R)-2-[3-(3-Butylbenzimidazol-5-yl)phenyl]-6-(hydroxymethyl)tetrahydropyran-3,4,5-triol] gave a Kd of 19.8 ± 11.2 nM. `Cc1nnc(-c2ccc(-c3cccc([C@H]4O[C@H](CO)[C@@H](O)[C@H](O)[C@@H]4O)c3)cc2F)o1` [Compound 150, (2R,3S,4R,5S,6R)-2-[3-[3-Fluoro-4-(5-methyl-1,3,4-oxadiazol-2-yl)phenyl]phenyl]-6-(hydroxymethyl)tetrahydropyran-3,4,5-triol] had a Kd of 25.9 ± 5.1 nM. Compound `COC(=O)c1nc2cc(-c3cccc([C@H]4O[C@H](CO)[C@@H](O)[C@H](O)[C@@H]4O)c3)ccc2[nH]1` [Compound 151, Methyl 5-[3-[(2R,3S,4R,5S,6R)-3,4,5-trihydroxy-6-(hydroxymethyl)tetrahydropyran-2-yl]phenyl]-1H-benzimidazole-2-carboxylate] showed a Kd of 37.8 ± 13.4 nM. In the case of `CNC(=O)Cn1cnc2cc(-c3cccc([C@H]4O[C@H](CO)[C@@H](O)[C@H](O)[C@@H]4O)c3)ccc21` [Compound 152, N-Methyl-2-[5-[3-[(2R,3S,4R,5S,6R)-3,4,5-trihydroxy-6-(hydroxymethyl)tetrahydropyran-2-yl]phenyl]benzimidazol-1-yl]acetamide], the Kd was 43.8 ± 1.1 nM. For `O=C(O)c1cc(C(=O)O)cc(-c2cccc([C@H]3O[C@H](CO)[C@@H](O)[C@H](O)[C@@H]3O)c2)c1` [Compound 153, 5-[3-[(2R,3S,4R,5S,6R)-3,4,5-trihydroxy-6-(hydroxymethyl)tetrahydropyran-2-yl]phenyl]benzene-1,3-dicarboxylic acid], binding was put at a Kd of 88.7 ± 41.2 nM.

In the case of `CNC(=O)c1cccc(-c2ccc3cc([C@H]4O[C@H](CO)[C@@H](O)[C@H](O)[C@@H]4O)ccc3c2)c1` [Compound 154, N-methyl-3-[6-[(2R,3S,4R,5S,6R)-3,4,5-trihydroxy-6-(hydroxymethyl)tetrahydropyran-2-yl]-2-naphthyl]benzamide], the affinity, expressed as Kd, was 18.4 ± 6.9 nM. For `OC[C@H]1O[C@H](c2ccc3cc(-c4cc(Cl)cc(Cl)c4)ccc3c2)[C@@H](O)[C@@H](O)[C@@H]1O` [Compound 155, (2R,3S,4R,5S,6R)-2-[6-(3,5-dichlorophenyl)-2-naphthyl]-6-(hydroxymethyl)tetrahydropyran-3,4,5-triol], the Kd came to 71.7 ± 2 nM. With `OC[C@H]1O[C@H](c2ccc3cc(O)ccc3c2)[C@@H](O)[C@@H](O)[C@@H]1O` [Compound 156, (2R,3S,4R,5S,6R)-2-(hydroxymethyl)-6-(6-hydroxy-2-naphthyl)tetrahydropyran-3,4,5-triol], binding was characterised by a dissociation constant (Kd) of 16.5 ± 4.3 nM. This Kd is about 4.3-fold lower than that of the compound before. As for `CNC(=O)c1cccc(Cc2cccc([C@H]3O[C@H](CO)[C@@H](O)[C@H](O)[C@@H]3O)c2)c1` [Compound 157, N-methyl-3-[[3-[(2R,3S,4R,5S,6R)-3,4,5-trihydroxy-6-(hydroxymethyl)tetrahydropyran-2-yl]phenyl]methyl]benzamide], the Kd stood at 34.3 ± 8.1 nM. `CNC(=O)c1cccc(-c2ccc(-c3ccc([C@H]4O[C@H](CO)[C@@H](O)[C@H](O)[C@@H]4O)cc3)c(C)c2)c1` [Compound 158, N-methyl-3-[3-methyl-4-[4-[(2R,3S,4R,5S,6R)-3,4,5-trihydroxy-6-(hydroxymethyl)tetrahydropyran-2-yl]phenyl]phenyl]benzamide] came in with a Kd of 20.5 ± 4.3 nM. `CNC(=O)c1cccc(-c2ccc(-c3cccc([C@H]4O[C@H](CO)[C@@H](O)[C@H](O)[C@@H]4O)c3)c(C)c2)c1` [Compound 159, N,3′-dimethyl-3″-((2R,3S,4R,5S,6R)-3,4,5-trihydroxy-6-(hydroxymethyl)tetrahydro-2H-pyran-2-yl)-[1,1′:4′,1″-terphenyl]-3-carboxamide]: the equilibrium dissociation constant (Kd) turned out to be 15.6 ± 3.4 nM.

The compound `Cc1nnc(-c2ccc3cc(-c4cccc([C@H]5O[C@H](CO)[C@@H](O)[C@H](O)[C@@H]5O)c4)ccc3c2)o1` [Compound 161, (2R,3S,4R,5S,6R)-2-(hydroxymethyl)-6-[3-[6-(5-methyl-1,3,4-oxadiazol-2-yl)-2-naphthyl]phenyl]tetrahydropyran-3,4,5-triol] showed a Kd of 6.6 ± 1.2 nM.

Compound `OC[C@H]1O[C@H](c2cccc(-c3nc4c(Cl)cc(Cl)cc4[nH]3)c2)[C@@H](O)[C@@H](O)[C@@H]1O` [Compound 162] had a Kd of 39.5 ± 11 nM.

As to `OC[C@H]1O[C@H](c2cccc(-c3nc4ccccc4[nH]3)c2)[C@@H](O)[C@@H](O)[C@@H]1O` [Compound 163], binding was put at a Kd of 82.1 ± 0.6 nM. As to `Cc1ccc2[nH]c(-c3cccc([C@H]4O[C@H](CO)[C@@H](O)[C@H](O)[C@@H]4O)c3)nc2c1` [Compound 164], binding was characterised by a dissociation constant (Kd) of 50.2 ± 14.1 nM. Take `OC[C@H]1O[C@H](c2cccc(-c3nc4c(F)cc(F)cc4[nH]3)c2)[C@@H](O)[C@@H](O)[C@@H]1O` [Compound 165]: the Kd came to 28.9 ± 11.7 nM. `OC[C@H]1O[C@H](c2cccc(-c3nc4cc(F)ccc4[nH]3)c2)[C@@H](O)[C@@H](O)[C@@H]1O` [Compound 166] returned a Kd of 44.1 ± 19.9 nM. The compound `N#Cc1ccc2[nH]c(-c3cccc([C@H]4O[C@H](CO)[C@@H](O)[C@H](O)[C@@H]4O)c3)nc2c1` [Compound 167] yielded a Kd of 32.1 ± 4.3 nM. In the case of `O=C(c1ccccc1)c1ccc2[nH]c(-c3cccc([C@H]4O[C@H](CO)[C@@H](O)[C@H](O)[C@@H]4O)c3)nc2c1` [Compound 168] it was 42.5 ± 18.3 nM; in that of `CS(=O)(=O)c1ccc2[nH]c(-c3cccc([C@H]4O[C@H](CO)[C@@H](O)[C@H](O)[C@@H]4O)c3)nc2c1` [Compound 169], 25.7 ± 0.4 nM. With `OC[C@H]1O[C@H](c2cccc(-c3nc4cc(Cl)ccc4[nH]3)c2)[C@@H](O)[C@@H](O)[C@@H]1O` [Compound 170], the Kd worked out at 32.4 ± 14.4 nM. `OC[C@H]1O[C@H](c2cccc(-c3nc4c(C(F)(F)F)cccc4[nH]3)c2)[C@@H](O)[C@@H](O)[C@@H]1O` [Compound 171] came in with a Kd of 32.1 ± 19.1 nM. The compound `CNC(=O)c1ccc2[nH]c(-c3cccc([C@H]4O[C@H](CO)[C@@H](O)[C@H](O)[C@@H]4O)c3)nc2c1` [Compound 172, N-methyl-2-(3-((2R,3S,4R,5S,6R)-3,4,5-trihydroxy-6-(hydroxymethyl)tetrahydro-2H-pyran-2-yl)phenyl)-1H-benzo[d]imidazole-5-carboxamide] came in with a Kd of 530 ± 714 nM. `CNC(=O)c1cccc2[nH]c(-c3cccc([C@H]4O[C@H](CO)[C@@H](O)[C@H](O)[C@@H]4O)c3)nc12` [Compound 173, N-methyl-2-(3-((2R,3S,4R,5S,6R)-3,4,5-trihydroxy-6-(hydroxymethyl)tetrahydro-2H-pyran-2-yl)phenyl)-1H-benzo[d]imidazole-4-carboxamide]: the equilibrium dissociation constant (Kd) was found to be 54.6 ± 23 nM.

In the case of `OC[C@H]1O[C@H](c2cccc(-c3ccc(-c4cccnc4)cc3)c2)[C@@H](O)[C@@H](O)[C@@H]1O` [Compound 174], the equilibrium dissociation constant (Kd) was 13.6 ± 3.4 nM. In the case of `Cc1nc(-c2ccc(-c3cccc([C@H]4O[C@H](CO)[C@@H](O)[C@H](O)[C@@H]4O)c3)cc2)no1` [Compound 175] it was 10.2 ± 0.04 nM. On to `Cc1nnc(-c2ccc(-c3cccc([C@H]4O[C@H](CO)[C@@H](O)[C@H](O)[C@@H]4O)c3)cc2)s1` [Compound 176], for which the Kd was 21.1 ± 2.6 nM. In the case of `Cc1nc(-c2ccc(-c3cccc([C@H]4O[C@H](CO)[C@@H](O)[C@H](O)[C@@H]4O)c3)cc2)cs1` [Compound 177] it was 12.1 ± 5.8 nM.

For `OC[C@H]1O[C@H](c2cccc(-c3ccc(-c4nnco4)cc3)c2)[C@@H](O)[C@@H](O)[C@@H]1O` [Compound 178], binding was put at a Kd of 17.9 ± 3.7 nM.

`Cn1cnc2cc(-c3cccc([C@H]4O[C@H](CO)[C@@H](O)[C@H](O)[C@@H]4O)c3)ccc21` [Compound 179, (2R,3S,4R,5S,6R)-2-(hydroxymethyl)-6-(3-(1-methyl-1H-benzo[d]imidazol-5-yl)phenyl)tetrahydro-2H-pyran-3,4,5-triol]: binding was put at a Kd of 20.4 ± 0.8 nM. `CNC(=O)Cc1nnc(-c2ccc(-c3cccc([C@H]4O[C@H](CO)[C@@H](O)[C@H](O)[C@@H]4O)c3)cc2)o1` [Compound 181, N-methyl-2-(5-(3′-((2R,3S,4R,5S,6R)-3,4,5-trihydroxy-6-(hydroxymethyl)tetrahydro-2H-pyran-2-yl)-[1,1′-biphenyl]-4-yl)-1,3,4-oxadiazol-2-yl)acetamide] returned a Kd of 21.7 ± 4.2 nM. In the case of `COCCOCCNC(=O)Cc1nnc(-c2ccc(-c3cccc([C@H]4O[C@H](CO)[C@@H](O)[C@H](O)[C@@H]4O)c3)cc2)o1` [Compound 182, N-(2-(2-methoxyethoxy)ethyl)-2-(5-(3′-((2R,3S,4R,5S,6R)-3,4,5-trihydroxy-6-(hydroxymethyl)tetrahydro-2H-pyran-2-yl)-[1,1′-biphenyl]-4-yl)-1,3,4-oxadiazol-2-yl)acetamide], the Kd is 20.2 ± 4.7 nM. Compound `Cc1nnc(-c2ccc(-c3cccc([C@H]4O[C@H](CO)[C@@H](O)[C@H](O)[C@@H]4O)c3)nc2)o1` [Compound 183, (2R,3S,4R,5S,6R)-2-(hydroxymethyl)-6-(3-(5-(5-methyl-1,3,4-oxadiazol-2-yl)pyridin-2-yl)phenyl)tetrahydro-2H-pyran-3,4,5-triol] registered a Kd of 24.8 ± 8.3 nM. In the case of `CC(=O)c1ccc(-c2cccc([C@H]3O[C@H](CO)[C@@H](O)[C@H](O)[C@@H]3O)c2)cc1` [Compound 184, 1-(3′-((2R,3S,4R,5S,6R)-3,4,5-trihydroxy-6-(hydroxymethyl)tetrahydro-2H-pyran-2-yl)-[1,1′-biphenyl]-4-yl)ethanone] it was 18.2 ± 8.4 nM.
